According to ChEMBL document CHEMBL4651402, “Screening of ~5500 FDA-approved drugs and clinical candidates for anti-SARS-CoV-2 activity” (2021):

Key:
[1] = system: SARS-CoV-2; experiment: microbe, parasite or virus in culture; conditions: Severe acute respiratory syndrome coronavirus 2, Vero C1008, 48 h
[2] = in vitro; conditions: chlorocebus sabaeus, Vero E6 (Vero C1008) cells
[3] = system: SARS-CoV-2; experiment: microbe, parasite or virus in culture; assay type: functional, organism-based, Chlorocebus sabaeus, Vero C1008; conditions: Severe acute respiratory syndrome coronavirus 2, Vero C1008, 48 h

c1ccc(CN(CCN(Cc2ccccn2)Cc2ccccn2)Cc2ccccn2)nc1
IC50 [1]: > 3.09 µM | IC50 ([1]; read-out: pIC50 (converted)): > 3.09 µM | CC50 at 48 h ([2]; CC50): 1.93 µM | CC50 at 48 h ([2]; pCC50): 1.91 µM | IC50 ([3]; read-out: IC50): > 100 µM | IC50 ([3]; read-out: pIC50 (converted)): > 100 µM

CN1CCC(OC(=O)C(Oc2ccc(Cl)cc2)Oc2ccc(Cl)cc2)CC1 [LIFIBRATE]
IC50 [1]: > 100 µM | IC50 ([1]; read-out: pIC50 (converted)): > 100 µM | CC50 at 48 h ([2]; CC50): 38 µM | CC50 at 48 h ([2]; pCC50): 38 µM | IC50 ([3]; read-out: IC50): > 100 µM | IC50 ([3]; read-out: pIC50 (converted)): > 100 µM

CC[C@H]1CN2CC[C@H]1C[C@H]2[C@H](O)c1ccnc2ccc(OC)cc12 [HYDROQUININE]
IC50 [1]: 15.5 µM | IC50 ([1]; read-out: pIC50 (converted)): 15.5 µM | CC50 at 48 h ([2]; CC50): > 25.1 µM | CC50 at 48 h ([2]; pCC50): > 25.1 µM | IC50 ([3]; read-out: IC50): > 25.1 µM | IC50 ([3]; read-out: pIC50 (converted)): > 25.1 µM

CC(=O)c1ccc2c(c1)N(CCCN(C)C)c1ccccc1S2 [ACEPROMAZINE]
IC50 [1]: > 100 µM | IC50 ([1]; read-out: pIC50 (converted)): > 100 µM | CC50 at 48 h ([2]; CC50): 22.4 µM | CC50 at 48 h ([2]; pCC50): 22.4 µM | IC50 ([3]; read-out: IC50): > 100 µM | IC50 ([3]; read-out: pIC50 (converted)): > 100 µM

COc1ccc2c(c1)CCC(c1ccccc1)=C2c1ccc(OCCN2CCCC2)cc1 [NAFOXIDINE]
IC50 [1]: > 100 µM | IC50 ([1]; read-out: pIC50 (converted)): > 100 µM | CC50 at 48 h ([2]; CC50): 3.85 µM | CC50 at 48 h ([2]; pCC50): 3.8 µM | IC50 ([3]; read-out: IC50): > 100 µM | IC50 ([3]; read-out: pIC50 (converted)): > 100 µM

Cc1ccc(CCCO)c(NCc2ccc3nc(NCCCN4CCOCC4)n(Cc4nc(C)ccc4O)c3c2)c1
IC50 [1]: > 20 µM | IC50 ([1]; read-out: pIC50 (converted)): > 20 µM | CC50 at 48 h ([2]; CC50): 9.33 µM | CC50 at 48 h ([2]; pCC50): 9.33 µM | IC50 ([3]; read-out: IC50): > 20 µM | IC50 ([3]; read-out: pIC50 (converted)): > 20 µM

CCN(CCO)CCC[C@H](C)Nc1ccnc2cc(Cl)ccc12
IC50 [1]: 12.7 µM | IC50 ([1]; read-out: pIC50 (converted)): 12.6 µM | CC50 at 48 h ([2]; CC50): > 50.1 µM | CC50 at 48 h ([2]; pCC50): > 50.1 µM | IC50 ([3]; read-out: IC50): ~18.8 µM | IC50 ([3]; read-out: pIC50 (converted)): ~18.6 µM

CCC(=O)c1ccc2c(c1)N(CCCN1CCN(CCO)CC1)c1ccccc1S2 [CARPHENAZINE]
IC50 [1]: > 100 µM | IC50 ([1]; read-out: pIC50 (converted)): > 100 µM | CC50 at 48 h ([2]; CC50): 6.31 µM | CC50 at 48 h ([2]; pCC50): 6.31 µM | IC50 ([3]; read-out: IC50): > 100 µM | IC50 ([3]; read-out: pIC50 (converted)): > 100 µM

CN1CCC(=C2c3ccccc3Sc3ccccc32)CC1 [PIMETHIXENE]
IC50 [1]: > 100 µM | IC50 ([1]; read-out: pIC50 (converted)): > 100 µM | CC50 at 48 h ([2]; CC50): 25.7 µM | CC50 at 48 h ([2]; pCC50): 25.7 µM | IC50 ([3]; read-out: IC50): > 100 µM | IC50 ([3]; read-out: pIC50 (converted)): > 100 µM

COc1cccc2c1C(=O)c1c(O)c3c(c(O)c1C2=O)C[C@@](O)(C(=O)CO)C[C@@H]3O[C@H]1C[C@H](N)[C@H](O)[C@H](C)O1 [DOXORUBICIN]
IC50 [1]: 8.04 µM | IC50 ([1]; read-out: pIC50 (converted)): 7.94 µM | CC50 at 48 h ([2]; CC50): 64.6 µM | CC50 at 48 h ([2]; pCC50): 64.6 µM | IC50 ([3]; read-out: IC50): ~33.1 µM | IC50 ([3]; read-out: pIC50 (converted)): ~33.1 µM

COc1ccc2cc1Oc1ccc(cc1)C[C@H]1c3cc(c(OC)cc3CCN1C)Oc1c(OC)c(OC)cc3c1[C@H](C2)N(C)CC3 [FANCHININ]
IC50 [1]: 3.98 µM | IC50 ([1]; read-out: pIC50 (converted)): 3.98 µM | CC50 at 48 h ([2]; CC50): 5.17 µM | CC50 at 48 h ([2]; pCC50): 5.13 µM | IC50 ([3]; read-out: IC50): > 50.1 µM | IC50 ([3]; read-out: pIC50 (converted)): > 50.1 µM

O=C(NO)c1ccc(C2=Nc3ccccc3Oc3ccccc32)cc1
IC50 [1]: > 100 µM | IC50 ([1]; read-out: pIC50 (converted)): > 100 µM | CC50 at 48 h ([2]; CC50): 1.55 µM | CC50 at 48 h ([2]; pCC50): 1.55 µM | IC50 ([3]; read-out: IC50): > 100 µM | IC50 ([3]; read-out: pIC50 (converted)): > 100 µM

CC1=C(/C=C/C(C)=C/C=C/C(C)=C/C(=O)Nc2ccc(O)cc2)C(C)(C)CCC1 [FENRETINIDE]
IC50 [1]: > 100 µM | IC50 ([1]; read-out: pIC50 (converted)): > 100 µM | CC50 at 48 h ([2]; CC50): 5.01 µM | CC50 at 48 h ([2]; pCC50): 5.01 µM | IC50 ([3]; read-out: IC50): 2.95 µM | IC50 ([3]; read-out: pIC50 (converted)): 2.95 µM

NC(=O)C1(N2CCCCC2)CCN(CCCN2c3ccccc3CCc3ccccc32)CC1 [CARPIPRAMINE]
IC50 [1]: 8.91 µM | IC50 ([1]; read-out: pIC50 (converted)): 8.91 µM | CC50 at 48 h ([2]; CC50): 8.61 µM | CC50 at 48 h ([2]; pCC50): 8.51 µM | IC50 ([3]; read-out: IC50): > 100 µM | IC50 ([3]; read-out: pIC50 (converted)): > 100 µM

OCc1cc(C(O)CNCCCCCCOCCCCc2ccccc2)ccc1O (centres undefined) [SALMETEROL]
IC50 [1]: 19.1 µM | IC50 ([1]; read-out: pIC50 (converted)): 19.1 µM | CC50 at 48 h ([2]; CC50): 18.6 µM | CC50 at 48 h ([2]; pCC50): 18.6 µM | IC50 ([3]; read-out: IC50): > 100 µM | IC50 ([3]; read-out: pIC50 (converted)): > 100 µM

CCN(CCO)CCCC(C)Nc1ccnc2cc(Cl)ccc12 (centres undefined) [HYDROXYCHLOROQUINE]
IC50 [1]: ~11.6 µM | IC50 ([1]; read-out: pIC50 (converted)): ~11.5 µM | CC50 at 48 h ([2]; CC50): 47.9 µM | CC50 at 48 h ([2]; pCC50): 47.9 µM | IC50 ([3]; read-out: IC50): ~17.1 µM | IC50 ([3]; read-out: pIC50 (converted)): ~17 µM

c1ccc2c(c1)Sc1ccccc1N2CC1CN2CCC1CC2 (centres undefined) [MEQUITAZINE]
IC50 [1]: 7.76 µM | IC50 ([1]; read-out: pIC50 (converted)): 7.76 µM | CC50 at 48 h ([2]; CC50): 7.76 µM | CC50 at 48 h ([2]; pCC50): 7.76 µM | IC50 ([3]; read-out: IC50): > 100 µM | IC50 ([3]; read-out: pIC50 (converted)): > 100 µM

COc1ccccc1N1CCN(CCCCNC(=O)c2ccc3ccccc3c2)CC1 [BP-897]
IC50 [1]: > 25.1 µM | IC50 ([1]; read-out: pIC50 (converted)): > 25.1 µM | CC50 at 48 h ([2]; CC50): 30.2 µM | CC50 at 48 h ([2]; pCC50): 30.2 µM | IC50 ([3]; read-out: IC50): > 25.1 µM | IC50 ([3]; read-out: pIC50 (converted)): > 25.1 µM

CN1CCC(COc2cnc(-c3cccc(Cn4nc(-c5cccc(C#N)c5)ccc4=O)c3)nc2)CC1 [TEPOTINIB]
IC50 [1]: > 100 µM | IC50 ([1]; read-out: pIC50 (converted)): > 100 µM | CC50 at 48 h ([2]; CC50): 5.75 µM | CC50 at 48 h ([2]; pCC50): 5.75 µM | IC50 ([3]; read-out: IC50): > 100 µM | IC50 ([3]; read-out: pIC50 (converted)): > 100 µM
